Literature values, collected in publication PMC4753123 (Archives of biochemistry and biophysics, 2015).

Biological target: T1, Mtm1p (Saccharomyces cerevisiae, UniProt P53320)
T1 sequence (P53320 1-366): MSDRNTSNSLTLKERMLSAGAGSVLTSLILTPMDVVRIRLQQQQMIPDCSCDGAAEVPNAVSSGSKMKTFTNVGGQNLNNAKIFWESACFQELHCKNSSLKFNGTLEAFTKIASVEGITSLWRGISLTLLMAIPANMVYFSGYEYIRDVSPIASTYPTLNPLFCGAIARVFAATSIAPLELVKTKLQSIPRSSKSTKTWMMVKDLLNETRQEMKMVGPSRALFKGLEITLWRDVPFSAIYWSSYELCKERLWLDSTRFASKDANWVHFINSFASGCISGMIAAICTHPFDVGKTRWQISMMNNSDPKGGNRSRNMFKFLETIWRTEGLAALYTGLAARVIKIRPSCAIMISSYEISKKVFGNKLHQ
Experiment: fluorescence titration
Assay type: binding
Conditions: purified recombinant protein

Kd: 600 nM
Structure (SMILES): Cc1ncc(COP(=O)(O)O)c(C=O)c1O [PLP]
